Source: patent US20090306093A1, “METHOD FOR TREATING PATIENT HAVING BENIGN PROSTATE HYPERPLASIA” (KAOHSIUNG MEDICAL UNIVERSITY, priority 2008, published 2009)
Values joined by “and” are separate entries in the source; they are usually repeats but may differ in a detail not shown here. Equal entries are not always repeated.

How the values were obtained:
[1] = system: PZ-HPV-7 human prostatic epithelial cells; experiment: Cell proliferation, MTT assay; format: cell-based
Method: (§1) PZ-HPV-7, a human prostate epithelial cell line derived from normal peripheral zone tissue and transfected with human papillomavirus type 18, was obtained from the American Type Culture Collection (ATCC). Cells were grown in K-SFM medium supplemented with 100 U/mL penicillin, […], streptomycin 5 ng/ml, EGF human recombinant and 50 µg/mL BPE in 75-cm^2 flasks at 37° C. in a humidified atmosphere of […]. The culture medium was renewed every 2 days and cells were sub-cultured every 6 days. For the experiments, cells were seeded in 24-well plates at a density of 1×10^4 cells/well. After 24 hours and 48 hours, when cells were 80% confluent, KMUP-1 (1-100 μM) was added to the 24-well plates. Cell proliferation was measured using MTT assay (3-[4,5-dimethylthiazol-2-yl]-2,5-diphenyl-tetrazolium bromide, Sigma). The trypan blue […] exclusion assay was performed to determine the proportion of living and dead cells in 24 hours and 48 hours after treatment. After 24 hours and 48 hours of treatment with KMUP-1 (1-100 μM), attached cells were collected by trypsinization. Cells were counted in a hemocytometer using equal volume of cell suspension and trypan blue solution (0.2% in PBS).

PDE5A = experiment: Western blot of PDE5A expression in rat prostate; conditions: KMUP-1 10-100 μM
Method: Prostate strips were incubated with KMUP-1 (10-100 μM), sildenafil (100 μM) and zaprinast (100 μM) in 10 mL Tyrode solution aerated with 95% O2 and 5% CO2 for 1 hour. To examine the possible mechanisms of KMUP-1 action, the rat prostate were pretreated with ODQ (10 μM), SQ22536 (10 μM) and RP-8pCPT-cGMPs (10 μM) for 30 minutes prior to the addition of KMUP-1 (100 μM).
(§2) In order to examine the expression of Rho kinase in prostate, the prostate strips were pre-incubated with phenylephrine (10 μM) for 30 minutes. After a pre-treatment of phenylephrine, KMUP-1 (10-100 μM) and Y-27632 (10 μM) were further incubated for 30 minutes. After the incubation time, the prostate were extracted with protein extraction reagent (Pierce Biotechnology, Inc., Rockford, Ill., USA.). The PZ-HPV-7 cells were incubated with and without KMUP-1 (0.1-10 μM) at 30 minutes, 8 and 24 hours. They were then washed rapidly with ice-cold PBS, incubated with protein extraction reagent, and scraped from the plates. The prostate tissues and cells were sonicated three times for 10 second each time and centrifuged at 13,000 rpm at 4° C. for 30 minutes. The protein concentrations of supernatants were determined, using bovine serum albumin as the standard. […] The intensity of the bands was measured by densitometry.

[2] = system: PZ-HPV-7 human prostatic epithelial cells; experiment: Trypan blue exclusion assay; format: cell-based; conditions: 1-100 μM, 24 and 48 hours
Method: as §1

[3] = system: phenylephrine (10 μM) pre-contracted rat isolated prostate; experiment: Relaxation of phenylephrine pre-contracted rat isolated prostate strips (isometric tension)
Method: The rat isolated prostate tissue was prepared as previously described with modifications^[10]. Briefly, Wistar rats (300-400 g) were killed with pentobarbital sodium (30 mg/kg) and the ventral part of their prostates were quickly excised. […] O2 and 5% CO2.
Isometric tension was recorded with a force displacement transducer (UGO BASILE, Model 7004, Italy). After the equilibration period, the strips were primed twice by adding 10 μM of the agonist, phenylephrine, to reach 80-100% of maximum contraction. […] The relaxation on rat prostate by KMUP-1 (0.01-100 μM) and tamsulosin (0.001 nM-100 μM) were also tested by their combination with sildenafil (0.1 μM), respectively. In isolated prostate strips, while stable constriction to phenylephrine was reached, sildenafil (0.1 μM) was pre-incubation for 30 minutes, before the cumulative addition of KMUP-1 (0.01-100 μM) or tamsulosin (0.001 nM-100 μM) to isolated prostate strips. In another experiment, to examine the possible mechanism of action of KMUP-1, rat prostates were pretreated with ODQ (1H-[1,2,4]oxadiazolo[4,3-a]quinoxalin-1-one, 10 μM, sGC inhibitor), RP-8pCPT-cGMPs (10 μM, PKG inhibitor), glibenclamide (10 μM, KATP channel blocker), 4-AP (4-aminopyridine, 100 μM, voltage-dependent K^+ channel blocker), apamin (1 μM, Ca^2+-dependent K^+ channel blocker) and charybdotoxin (ChTX) (0.1 μM, Ca^2+-dependent K^+ channel blocker) for 30 minutes before addition of KMUP-1 (100 μM).

ROCK2 = experiment: Western blot of phenylephrine-induced Rho kinase (ROCK2) expression in rat prostate; conditions: KMUP-1 10, 100 μM; Y-27632 10 μM; phenylephrine 10 μM
Method: as §2, with “standard. Tissue and cell extract protein were then boiled at a ratio of 4:1 with sample buffer (100 mM Tris, pH 6.8, 20% glycerol, 4% SDS, and 0.2% bromphenol blue). 40-60 μg protein was used in this experiment. Electrophoresis was performed using 10 or 12% SDS-polyacrylamide gel electrophoresis and then transferred to nitrocellulose membranes (Millipore Corporation, Billerica, Mass.).” for “standard.”

**Q.** For `Cn1c(=O)c2c(ncn2CCN2CCN(c3ccccc3Cl)CC2)n(C)c1=O` [KMUP-1, 7-[2-[4-(2-Chlorobenzene)piperazinyl]ethyl]-1,3-dimethyl xanthine], which cell growth ([1]; 1 μM, 24 hours) is on record?
**A.** Its cell growth is 82.00±3.03 % of control.

**Q.** What about the cell growth ([1]; 1 μM, 48 hours) of the same compound?
**A.** The cell growth was 70.00±2.23 % of control.

**Q.** What about the cell growth ([1]; 10 μM, 24 hours) of the same compound?
**A.** Its cell growth is 80.03±1.52 % of control.

**Q.** And the cell growth ([1]; 10 μM, 48 hours)?
**A.** Its cell growth is 56.00±2.72 % of control.

**Q.** And the cell growth ([1]; 100 μM, 24 hours)?
**A.** Its cell growth is 79.00±1.35 % of control.

**Q.** And the cell growth ([1]; 100 μM, 48 hours)?
**A.** Its cell growth is 47.00±1.8 % of control.

**Q.** What about the “expression of PDE5A” value (PDE5A) of the same compound?
**A.** The value was “mildly inhibits”.

**Q.** What about the “PZ-HPV-7 cell growth, Trypan blue assay” value [2] of the same compound?
**A.** The value was “dose- and time-dependent inhibition”.

**Q.** And the relaxation ([3]; 10 μM, 1 hour, phenylephrine 10 μM pre-contracted)?
**A.** Its relaxation is 110.00±5.09%.

**Q.** And the relaxation activity ([3]; 100 μM combined with sildenafil 0.1 μM)?
**A.** The relaxation activity was 190.00±10.14%.

**Q.** And the relaxation ability ([3]; 100 μM, phenylephrine 10 μM pre-contracted)?
**A.** The relaxation ability was 179.00±5.35% and 179.00±5.3%.

**Q.** And the relaxation ([3]; KMUP-1 100 μM, pre-incubation with ODQ 10 μM)?
**A.** The relaxation was 112.50±7.84%.

**Q.** What about the relaxation ([3]; KMUP-1 100 μM, pre-incubation with RP-8pCPT-cGMPs 10 μM) of the same compound?
**A.** Its relaxation is 128.00±4.41%.

**Q.** What about the relaxation ([3]; KMUP-1 100 μM, with 4-AP 100 μM) of the same compound?
**A.** Its relaxation is 122.00±3.74%.

**Q.** What about the relaxation ([3]; KMUP-1 100 μM, with apamin 1 μM) of the same compound?
**A.** Its relaxation is 126.00±9.09%.

**Q.** And the relaxation ([3]; KMUP-1 100 μM, with charybdotoxin 0.1 μM)?
**A.** The relaxation was 138.00±7.01%.

**Q.** And the relaxation ([3]; KMUP-1 100 μM, with glibenclamide 10 μM)?
**A.** The relaxation was 115.00±7.07%.

**Q.** And the “phenylephrine-induced Rho kinase expression” value (ROCK2)?
**A.** Its value is “protected against phenylephrine-induced Rho kinase expression”.
